In US20240099951A1, “HAIR GROWTH STIMULANT” (ADJUVANT HOLDINGS CO., LTD., priority 2020, published 2024):

Assays:
[1] = test system: hair groups derived from C57BL/6N dorsal body hair skin transplanted in Balb/c nu/nu mice; assay: Evaluation of hair-diameter-increasing activity (hair shafts grown after third cycle of Exemplary Test 1); assay type: in vivo
Description: Dorsal body hair skin was collected from C57BL/6N mice (SLC) of age 7 to 8 weeks in accordance with a procedure similar to that at Exemplary Test 1, above, the drug being applied after the hair groups derived from the dorsal body hair skin that had been fabricated were transplanted in Balb/c nu/nu mice (SLC) of age 4 to 6 weeks. Testing and breeding of animals complied with pertinent laws, regulations, ordinances, and guidelines, and was performed with the approval of the Experimental Ethics Review Board of the Institute of Physical and Chemical Research. The following three solutions were used during testing. • 60% aqueous ethanol solution • 5% minoxidil solution • 1% phytosphingosine solution Measurement of increase in hair diameter was carried out using hair shafts which had grown following completion of the third cycle at Exemplary Test 1. Of the hair shafts that were collected, two zigzag hairs were used. Three locations were selected in regions where diameter was large in the central portions thereof using a square 100 μm on a side. Measurement of selected regions was carried out at five locations. Hairs as they existed following application of the drug were used for measurement of hair shaft diameter.

[2] = test system: VEGF gene; assay: Human dermal papilla cell VEGF gene expression (real-time PCR); assay type: cell-based; conditions: 72 hours; for amount of expression of the VEGF gene as compared with the control group: human dermal papilla cells
Description: Human dermal papilla cells (Catalog No. CA602t05a; derived from person; Toyobo Co., Ltd. (Japan)) were purchased, testing and evaluation being carried out with maintenance and culture of cells being performed as described in the protocol.
As drugs for testing, drug solutions of the following respective concentrations (final concentrations) were prepared and used. • Comparative Example 5: 30 μM minoxidil • Comparative Example 6: 100 μM adenosine • Working Example 3: 0.3125 μM phytosphingosine • Working Example 4: 1.25 μM phytosphingosine
A 24-well plate was seeded with human dermal papilla cells so as to obtain 6×10^3 thereof per well. Following culture for 1 day within a CO2 incubator (5% CO2; 37° C.), the culture medium was replaced with culture medium which contained the respective drugs for testing. The cell plate was thereafter returned to the CO2 incubator, and this was further cultured for 72 hours. Following culture, total RNA was extracted from the respective wells and was recovered, and this was reverse-transcribed into cDNA. The cDNA that was prepared was used to measure VEGF gene expression in accordance with the real-time PCR method. The GAPDH gene was used as an internal standard, the amount of VEGF gene expression being calculated relative to the negative control group. […]
300 μL of lysis buffer RL was added thereto per well, and the cells were lysed by pipetting. […] Concentration of the recovered RNA was measured using a NanoDrop Lite (Catalog No. ND-LITE; Thermo Fisher Scientific K.K.), and this was stored at −80° C. until the following cDNA creation procedure.
A FastGene scriptase II cDNA synthesis 5X Ready Mix (Catalog No. NE-LS64; Nippon Genetics Co., Ltd. (Japan)) was used to synthesize cDNA. Dilution with RNase Free Water was carried out so as to cause concentration of total RNA produced in a new tube to be 20 ng/mL, 4 μL of FastGene scriptase II cDNA synthesis 5X Ready Mix was added to 16 μL of this sample solution, and this was agitated by vortexing. […]

CCCCCCCCCCCCCC[C@@H](O)[C@@H](O)[C@@H](N)CO [phytosphingosine]
Hair shaft diameter ([1]; 1% phytosphingosine solution applied, hair shafts after third cycle): 20.15 μm
hair shaft diameter as percent of control ([1]; 1% phytosphingosine solution vs 60% aqueous ethanol solution): 127%
amount of expression of the VEGF gene as compared with the control group ([2]; 0.3125 μM phytosphingosine (Working Example 3)): increase
amount of expression of the VEGF gene as compared with the control group ([2]; 1.25 μM phytosphingosine (Working Example 4)): increase
amount of expression of the VEGF gene compared with 30 μM minoxidil (Comparative Example 5) or 100 μM adenosine (Comparative Example 6) ([2]; increased amount of phytosphingosine added): greater
